In ChEMBL document CHEMBL1151696 (Bioorg Med Chem, 2008):
Calls of active or inactive are those of the source. The calls are words filed in the database; no cut-off is given here.

Tested on: Vaccinia virus
Type: functional, organism-based
Conditions: Orthopoxvirus vaccinia

Row | SMILES | Activity
1 | CC12CC3CC1(C)CC3(CN)C2 | inactive
2 | CC12CC3CC1(C)CC3(NCc1ccccc1)C2 | inactive
3 | COc1ccc(CNC23CC4CC(CC2C4)C3)cc1 | inactive
4 | CNC12CC3CC(CC1C3)C2 | inactive
5 | c1csc(CNC23CC4CC(CC2C4)C3)c1 | inactive
6 | Fc1ccc(CNC23CC4CC(CC2C4)C3)cc1 | inactive
7 | CN(Cc1ccccc1)C12CC3CC(CC1C3)C2 | inactive
8 | CC12CC3CC1(C)CC3(CN1CCCCC1)C2 | inactive
9 | N=C(N)NCC12CC3CC(CC1C3)C2 | inactive
10 | c1ccc(CNC23CC4CC(CC2C4)C3)cc1 | inactive
11 | COc1cccc(CNC23CC4CC(CC2C4)C3)c1 | inactive
12 | CN(C)CC12CC3(C)CC1CC3(C)C2 | inactive
13 | CC12CC3CC1(C)CC3(CNC(=N)N)C2 | inactive
14 | CNCC12CC3(C)CC1CC3(C)C2 | inactive
15 | c1ccc(CNCC23CC4CC(CC2C4)C3)cc1 | inactive
16 | NCC12CC3CC(CC1C3)C2 | inactive

Row | SMILES | Activity
17 | C1CCN(C23CC4CC(CC2C4)C3)CC1 | inactive
18 | CN(Cc1ccccc1)C12CC3(C)CC1CC3(C)C2 | inactive
19 | CC12CC3CC1(C)CC3(N(Cc1ccccc1)Cc1ccccc1)C2 | inactive
20 | COc1ccccc1CNC12CC3CC(CC1C3)C2 | inactive
21 | CC12CC3CC1(C)CC3(NCc1cccs1)C2 | inactive
22 | CN(C)C12CC3(C)CC1CC3(C)C2 | inactive
23 | CC12CC3CC1(C)CC3(N)C2 | inactive
24 | CN(C)C12CC3CC(CC1C3)C2 | inactive
25 | CN(C)CC12CC3CC(CC1C3)C2 | inactive
26 | CNC12CC3(C)CC1CC3(C)C2 | inactive
27 | CNCC12CC3CC(CC1C3)C2 | inactive
28 | CN(Cc1ccccc1)CC12CC3(C)CC1CC3(C)C2 | inactive
29 | CC(N)C12CC3(C)CC1CC3(C)C2 (stereo unspecified) | inactive
30 | CC12CC3CC1(C)CC3(CNCc1ccccc1)C2 | inactive
31 | CN(Cc1ccccc1)CC12CC3CC(CC1C3)C2 | inactive
